Consider three compounds from patent publication US5302609A, “Treatment of diabetic nephropathy” (The Regents of the University of Michigan, priority 1992, dated 1994).

Structures are written as SMILES. Where two headings read alike, the source gives them in different places.

For series [1] the following is noted: 100 mg/kg, cited from earlier work.
Series [2] deals with Madin-Darby canine kidney (MDCK) cells. The note with it: Shayman et al. 1991; cited from earlier work.
The test system of series [3] is non-diabetic control male rats. In words: PDMP treatment of non-diabetic control rats. The class given is in vivo, rat. The procedure:
(§1) Because there is gender specific expression of renal GSLs, only male rats were used. Shukla, A. et al., am. J. Physiol. 262: F24-F29 (1992). Male rats were fed a standard pellet laboratory chow and were provided with water ad libitum. Diabetes was induced by the administration of streptozotocin (80 mg/kg i.p.) dissolved in 10 mM Na citrate, pH 5.5. Controls were injected with buffer alone. Animals were provided with immediate access to food. Blood was obtained from the tail vein and blood glucose levels were determined with a Beckman glucose analyzer 48 h following the injection and at the time of organ resection. […] Therefore only animals with blood glucose concentrations between 13.5 and 32 mM were utilized. At the end of the experimental period, the animals were weighted, anesthetized with ether, and their kidneys removed and weighed. For UDP-Glc measurements, the kidneys were frozen in liquid nitrogen immediately following removal.
(§2) The GlcCer synthase inhibitor PDMP was administered as the DL-hydrochlorideto both diabetic and control animals 14 days following the induction of diabetes with streptozotocin (see Table IV results). […] See Shukla, A. et al., J. Lipid. Res. 32:713-722 (1991). The piperonyl butoxide was prepared by dissolution in corn oil at a concentration of 150 mg/ml oil. The butoxide solution was administered intraperitoneally prior to injection of PDMP. On the first day of treatment this was given 4 h before PDMP treatment; on days 2 to 4 of treatment it was administered just prior to the PDMP injection. PDMP was prepared as an emulsion with the detergent Myrj 52 in normal saline, buffered with sodium acetate. The final concentrations of PDMP, Myrj 52 and sodium acetate in mg/ml were 6, 12, and 8 respectively. The PDMP was given intraperitoneally as a dose of 100 mg/kg body weight.
(§3) Glomerular volumes were measured on paraffin sections of kidney fixed in formalin and stained with periodic acid Schiff reagent. The measurements required the determination of the mean glomerular random cross sectional area (A(G)). Glomerular areas were measured using a Javelin Chromachip camera (Javelin Electronics, Torrance, Calif.) attached to an Olympus BH-2 microscope interfaced with a Macintosh II computer containing an Image Capture 2 frame grabber (Scion Corp., Walkerville, Md.) and image 1.38B14 software (NIH Public Software, Bethesda, Md.). Glomerular volumes were derived by the method described in Weibel "Stereological Methods. Practical Methods for Biological Morphometry," (academic Press, London) p. 44-45 (1979) as applied by Hirose, K. et al., Kidney Int. 21:689-695 (1982).
(§4) To determine whether the increase in glucolipid formation in diabetes was functionally important, the following experiment was performed. One group of animals was made diabetic with streptozotocin, and the other group received vehicle alone. After two weeks, the control and diabetic groups were divided according to the weights of the rats. Half of the non-diabetic and half of the diabetic animals received DL-threo-PDMP, which is the racemic mixture of the compound of the Formula I where n is 8. The control non-diabetic and diabetic groups were pair fed and received vehicle alone. After 4 days of treatment the animals were weighed and sacrificed. In Table V, the data are expressed as the mean ± S.D. All animals received the cytochrome P450 inhibitor piperonyl butoxide (600 mg/kg) intraperitoneally. Treated control and diabetic animals received DL-threo-PDMP.

Series [4] concerns streptozotocin-induced diabetic male rats. In words: PDMP treatment of streptozotocin diabetic rats (renal hypertrophy). Format: in vivo, rat. The procedure: as §1, §2, §3, §4
The conditions of series [5]: in vivo.
Setting [6] is: Control + PDMP, n=11, DL-threo-PDMP 100 mg/kg i.p. 4 days with piperonyl butoxide, mean ± S.D.
Setting [7] is: Diabetic + PDMP, n=7, DL-threo-PDMP 100 mg/kg i.p. 4 days with piperonyl butoxide, mean ± S.D.

In the case of `CCCCCCCCCC(=O)N[C@H](CN1CCOCC1)[C@H](O)c1ccccc1` (relative stereo) [PDMP, 1-phenyl-2-decanoylamino-3-morpholino-1-propanol], the results for the “half life of PDMP” value in series [1] (animals exposed to the mixed function oxidase inhibitor PB) and in series [1] (without piperonyl butoxide (PB)) were 4 h and 1 h, respectively. Besides, the endogenous glycosphingolipid content entry in series [2] is listed as “decreased”. The “Body Weight” value is reported as 238 ± 21 g in series [3] (Control + PDMP, n=11, DL-threo-PDMP 100 mg/kg i.p. 4 days with piperonyl butoxide 600 mg/kg i.p., mean ± S.D.) and 200 ± 11 g in series [4] (Diabetic + PDMP, n=7, DL-threo-PDMP 100 mg/kg i.p. 4 days from 14 days after streptozotocin, with piperonyl butoxide 600 mg/kg i.p., mean ± S.D.). Further, the BUN came to 13 ± 3.2 mg/dL in series [3] (setting [6]) and 28 ± 6.4 mg/dL in series [4] (setting [7]). In addition, the “Kidney Weight” value stood at 2.25 ± 0.27 g in series [3] (setting [6]) and 2.32 ± 0.19 g in series [4] (setting [7]). Besides, the glomerular size entry in series [3] (morphometric analysis, five kidneys per group, non-diabetic rats) was “no effect”. The Creatinine in series [3] (serum, Control + PDMP, n=11, DL-threo-PDMP 100 mg/kg i.p. 4 days with piperonyl butoxide, mean ± S.D.) came out at 0.31 ± 0.09; in series [4] (serum, Diabetic + PDMP, n=7, DL-threo-PDMP 100 mg/kg i.p. 4 days with piperonyl butoxide, mean ± S.D.), 0.23 ± 0.05. In series [4] (4 days of treatment, animals hyperglycemic), the “kidney weights of PDMP-treated diabetic animals compared with untreated diabetic animals” value is listed as “significantly lower”. The “glomerular volumes compared with control groups” value in series [4] (morphometric analysis, five kidneys per group, diabetic animals treated with PDMP) is recorded as “not significantly different”. Moreover, in series [4] (periodic acid Schiff stained kidney sections: acute tubular necrosis, acute or chronic inflammation, glomerular pathology), the “renal histology (drug-induced toxicity)” value is reported as “no evidence of acute tubular necrosis, acute or chronic inflammation, or glomerular pathology”.
With `CCCCOCCOCCOCc1cc2c(cc1CCC)OCO2` [PB, piperonyl butoxide], the “effect on renal growth or function” value in series [5] is “no effect”.
Turning to `OC1C(O)C(O)C2OC2C1O` (centres unmarked) [conduritol B epoxide, reference compound], the endogenous glycosphingolipid content entry in series [2] is on record as “increased”.
